According to publication PMC6522930, “Design, synthesis and biological activity evaluation of a new class of 2,4-thiazolidinedione compounds as insulin enhancers” (Journal of Enzyme Inhibition and Medicinal Chemistry, 2019):

What was measured:
[1] = biological target: T1, PPARα (Homo sapiens, UniProt Q07869); experiment: In vitro activation of PPARα (cells containing PPAR, EC50); format: cell-based; settings: n ≥ 8; 24 h; read-out: EC50 ± SD PPARα
T1 construct: expressed in transfected cells
T1 sequence (Q07869 1-468): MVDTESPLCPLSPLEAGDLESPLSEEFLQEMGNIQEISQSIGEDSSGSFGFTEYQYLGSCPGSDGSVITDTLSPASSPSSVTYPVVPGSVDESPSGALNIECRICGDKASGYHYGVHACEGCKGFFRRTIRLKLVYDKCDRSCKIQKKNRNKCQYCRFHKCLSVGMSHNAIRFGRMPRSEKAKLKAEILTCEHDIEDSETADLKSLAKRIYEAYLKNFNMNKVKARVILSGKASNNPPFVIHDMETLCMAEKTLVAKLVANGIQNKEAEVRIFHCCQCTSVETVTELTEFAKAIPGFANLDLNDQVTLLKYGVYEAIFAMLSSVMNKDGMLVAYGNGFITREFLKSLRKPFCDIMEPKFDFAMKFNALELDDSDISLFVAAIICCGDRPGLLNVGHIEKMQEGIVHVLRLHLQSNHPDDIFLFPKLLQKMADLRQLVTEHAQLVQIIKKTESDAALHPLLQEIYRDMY
Method: (§1) According to the literature, the cells containing PPAR (α, β and γ) were obtained and transfected into 96-well plates the day before for cells culture. Transfection was performed according to the instructions of human PPAR enzyme-linked immunoassay. […] After 24 h, the drugs were added, and 20 μl of MTT was added to each well for another 6 h, and the cell liquid was collected by removing the culture medium, and 150 μl of DMSO was added to each hole. And the absorbance value (A) of each hole was measured under the wavelength of 460 nm.

[2] = biological target: T2, PPARγ (Homo sapiens, UniProt P37231); experiment: In vitro activation of PPARγ (cells containing PPAR, EC50); format: cell-based; settings: n ≥ 8; 24 h; read-out: EC50 ± SD PPARγ
T2 construct: expressed in transfected cells
T2 sequence (P37231 1-505): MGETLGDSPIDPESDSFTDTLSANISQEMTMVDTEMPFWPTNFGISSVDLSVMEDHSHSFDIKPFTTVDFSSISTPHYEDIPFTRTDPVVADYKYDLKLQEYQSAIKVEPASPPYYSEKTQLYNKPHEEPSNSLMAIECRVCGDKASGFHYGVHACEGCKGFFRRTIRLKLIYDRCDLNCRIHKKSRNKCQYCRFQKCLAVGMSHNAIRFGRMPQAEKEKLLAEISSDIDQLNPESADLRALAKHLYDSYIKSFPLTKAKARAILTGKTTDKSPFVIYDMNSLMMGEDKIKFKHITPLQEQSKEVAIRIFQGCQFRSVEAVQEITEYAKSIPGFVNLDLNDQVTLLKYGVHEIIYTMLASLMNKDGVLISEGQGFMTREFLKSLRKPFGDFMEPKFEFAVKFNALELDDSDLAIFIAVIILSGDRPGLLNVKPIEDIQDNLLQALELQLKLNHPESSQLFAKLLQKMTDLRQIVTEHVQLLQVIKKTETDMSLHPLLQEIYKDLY
Method: as §1

[3] = Lipid–water partition coefficient (log p); format: physicochemical
Source text: (§2) Drug in vitro experiment was one of the basic contents to evaluate drugs activity, and it was a necessary approach to research drugs. Drugs’ efficacy was often affected by some physical and chemical properties of compounds, such as lipid–water partition coefficient (log p), and dissociation degree (pKa). […] In Table 1, we could find that target compounds were fat-soluble. The fat-soluble compounds were favourable for drugs absorption, and drugs were easy to enter the cells. […] The pKa will affect the absorption and delivery of the drugs, different environmental (acid and alkalinity) medicine may be different, sometimes exists in the form of ions, sometimes exists in the form of molecules. Usually in the form of ion drugs has no effect. Therefore, it was necessary to study the dissociation degree (pKa) of drugs to study the pharmacodynamics. […] After the physical and chemical properties were studied, the biological activity was studied. […] After that, the target compounds 6a, 6e, 6f, 6g and 6i had good biological activity and were preliminarily screened out for further study on PPARγ receptor agonist activity (Figure 5).

[4] = Dissociation degree (pKa); format: physicochemical
Source text: as §2

[5] = test system: healthy mice; experiment: Oral glucose tolerance test; format: in vivo; settings: for Blood glucose levels 1 h / Blood glucose levels 2 h / Blood glucose levels 0 h: 10 mg kg^−1 d^−1 oral for 10 d; for Blood glucose levels 1 h: 1 h after sugar load; for Blood glucose levels 2 h: 2 h after sugar load; for Blood glucose levels 0 h: fasted 12 h, before sugar load; for Effect in glucose tolerance test (in words): 10 mg kg^−1 d^−1 oral, 10 d
Method: In vivo experiments, glucose tolerance test, insulin tolerance test, cell survival experiment and acute toxicity were used as the test indicators (Tables 2, [3] and [4]). In Table 2, we chose dose 10 mg kg^−1 d^−1 and used oral administration. […] The mice were given the drug for 10 d, blood was collected from the tail vein of the mice before and after the sugar load for 1 h and 2 h, and the blood glucose level of the mice before and after the sugar load was measured by the glucometer.
(§3) (1) Glucose tolerance test: The healthy mice (20 ± 2 g) were selected. After 1 week of acclimation, mice with no body surface damage, good general condition and flexible reaction were selected for the experiment. The test compounds were dissolved with DMSO, and were given a dose volume of 0.2 ml 10 g^−1, and a dose of 10 mg kg^−1, and given by gavage (oral) once a day. […] The mice were given the drug for 10 d, and after the last dose, the mice fasted for 12 h. The next day, blood was collected from the tail vein of the mice before and after the sugar load for 1 h and 2 h, and the blood glucose level of the mice before and after the sugar load was measured by the glucometer. […] The 12 h of fasting after the last administration, blood was taken from the orbital venous plexus (used to measure the blood glucose level after fasting). Each group was immediately given a subcutaneous injection of 0.2 μg kg^−1 of insulin. After 1 h and 2 h of injection, blood was taken again. (3) Cell survival experiment: The HUVEC cells were inoculated on the 96-well plate at the initial concentration of 3 × 10^3 cells/holes, and 100 μl RPMI 1640 medium were added to each hole. At 5% CO2 and 37 °C cell cultivation in 24 h, every pore solution in different concentrations. […] And determine the hole under 460 nm wavelength absorbance value (A).

[6] = test system: healthy mice; experiment: Insulin tolerance test (blood glucose under insulin load); format: in vivo; settings: for Effect in insulin tolerance test (in words): 10 mg kg^−1 d^−1; for Blood glucose levels 1 h / Blood glucose levels 2 h / Blood glucose levels 0 h: 10 mg kg^−1 d^−1 for 15 d; for Blood glucose levels 1 h: 1 h after s.c. insulin 0.2 μg kg^−1; for Blood glucose levels 2 h: 2 h after s.c. insulin 0.2 μg kg^−1; for Blood glucose levels 0 h: fasted 12 h, before insulin
Method: as §3

[7] = test system: HUVEC cells; experiment: Cell survival experiment (cytotoxicity); format: cell-based; settings: for Cytotoxic effect (in words): 10^−3–10^−2 mol L^−1; for Cell survival rate: HUVEC cells
Method: as §3

[8] = Acute toxicity test (LD50); format: in vivo; settings: oral administration; n ≥ 3

| SMILES | EC50 [1] | EC50 [2] | logP [3] | pKa [4] | Blood glucose levels 1 h [5] | Blood glucose levels 2 h [5] | Blood glucose levels 0 h [5] | Effect in glucose tolerance test (in words) [5] | Effect in insulin tolerance test (in words) [6] | Blood glucose levels 1 h [6] | Blood glucose levels 2 h [6] | Blood glucose levels 0 h [6] | Cytotoxic effect (in words) [7] | Cell survival rate ([7]; 10^−2 mol l^−1) | Cell survival rate ([7]; 10^−3 mol l^−1) | Cell survival rate ([7]; 10^−4 mol l^−1) | Cell survival rate ([7]; 10^−5 mol l^−1) | Cell survival rate ([7]; 10^−6 mol l^−1) | LD50 ± SD [8] |
| --- | --- | --- | --- | --- | --- | --- | --- | --- | --- | --- | --- | --- | --- | --- | --- | --- | --- | --- | --- |
| O=C1NC(=O)C(Cc2ccc(OCCNC(=O)c3ccccn3)cc2)S1 (stereo not drawn) [Compound 6c, N-(2-(4-((2,4-dioxothiazolidin-5-yl)methyl)phenoxy)ethyl) picolinamide] | 13000 ± 1560 nM | 450 ± 210 nM | 1.92 | 10 | – | – | – | – | – | – | – | – | – | – | – | – | – | – | – |
| Cc1ccc(C(=O)NCCOc2ccc(CC3SC(=O)NC3=O)cc2)cc1 (stereo not drawn) [Compound 6e, N-(2-(4-((2,4-dioxothiazolidin-5-yl)methyl)phenoxy)ethyl)-4-methylbenzamide] | – | 30 ± 10 nM | 3.26 | 9.77 | 6.003 ± 1.876 mmol/L | 2.953 ± 0.876 mmol/L | 3.312 ± 0.301 mmol/L | good resistance activation to glucose | good resistance activation to insulin | 1.762 ± 0.453 mmol/L | 2.463 ± 1.211 mmol/L | 5.411 ± 1.002 mmol/L | no obvious cytotoxic effect | 94.3 ± 1.02% | 99.1 ± 0.08% | 100% | 100% | 100% | 2451.2 ± 1.24 mg/kg |
| Cc1ccc(C(=O)NCCOc2ccc(CC3SC(=O)NC3=O)nc2)cc1 (stereo not drawn) [Compound 6f, N-(2-((6-((2,4-dioxothiazolidin-5-yl)methyl)pyridin-3-yl)oxy)ethyl)-4-methylbenzamide] | – | 100 ± 100 nM | 2.56 | 9.65 | 6.651 ± 2.413 mmol/L | 4.121 ± 1.922 mmol/L | 3.216 ± 0.315 mmol/L | good resistance activation to glucose | good resistance activation to insulin | 1.903 ± 0.611 mmol/L | 2.602 ± 1.143 mmol/L | 5.714 ± 1.465 mmol/L | no obvious cytotoxic effect | 89.6 ± 1.34% | 98.3 ± 0.45% | 99.2 ± 0.31% | 99.8 ± 0.09% | 100% | 2013.6 ± 1.43 mg/kg |
| Cc1ccc(C(=O)NCCOc2ccc(CC3SC(=O)NC3=O)cc2)nc1 (stereo not drawn) [Compound 6g, N-(2-(4-((2,4-dioxothiazolidin-5-yl)methyl)phenoxy)ethyl)-5-methylpicolinamide] | – | 80 ± 30 nM | 2.83 | 9.45 | 6.445 ± 2.220 mmol/L | 3.677 ± 1.730 mmol/L | 3.112 ± 0.279 mmol/L | good resistance activation to glucose | good resistance activation to insulin | 1.843 ± 0.544 mmol/L | 2.566 ± 1.224 mmol/L | 5.613 ± 1.246 mmol/L | no obvious cytotoxic effect | 90.5 ± 1.54% | 98.6 ± 0.44% | 99.8 ± 0.09% | 100% | 100% | 2138.8 ± 1.36 mg/kg |
| Cc1ccc(C(=O)NCCOc2ccc(CC3SC(=O)NC3=O)nc2)nc1 (stereo not drawn) [Compound 6h, N-(2-((6-((2,4-dioxothiazolidin-5-yl)methyl)pyridin-3-yl)oxy)ethyl)-5-methylpicolinamide] | 10600 ± 1860 nM | 280 ± 130 nM | 2.01 | 9.41 | – | – | – | – | – | – | – | – | – | – | – | – | – | – | – |
| O=C1NC(=O)C(Cc2ccc(OCCNC(=O)c3ccc(O)cc3)cc2)S1 (stereo not drawn) [Compound 6i, N-(2-(4-((2,4-dioxothiazolidin-5-yl)methyl)phenoxy)ethyl)-4-hydroxybenzamide] | – | 70 ± 20 nM | 2.8 | 9.03 | 6.401 ± 2.112 mmol/L | 3.265 ± 1.236 mmol/L | 3.218 ± 0.317 mmol/L | good resistance activation to glucose | good resistance activation to insulin | 1.792 ± 0.541 mmol/L | 2.501 ± 1.025 mmol/L | 5.592 ± 1.134 mmol/L | no obvious cytotoxic effect | 92.1 ± 1.43% | 98.8 ± 0.29% | 99.9 ± 0.02% | 100% | 100% | 2268.9 ± 1.25 mg/kg |
| O=C1NC(=O)C(Cc2ccc(OCCNC(=O)c3ccc(O)cn3)cc2)S1 (stereo not drawn) [Compound 6k, N-(2-(4-((2,4-dioxothiazolidin-5-yl)methyl)phenoxy)ethyl)-5-hydroxypicolinamide] | – | 210 ± 110 nM | 2.32 | 8.66 | – | – | – | – | – | – | – | – | – | – | – | – | – | – | – |
| CN(CCOc1ccc(CC2SC(=O)NC2=O)cc1)c1ccccn1 (stereo not drawn) [Rosiglitazone, reference compound] | – | – | – | – | 6.351 ± 2.004 mmol/L | 3.654 ± 1.232 mmol/L | 3.265 ± 0.345 mmol/L | – | – | – | – | – | – | – | – | – | – | – | 2246.1 ± 1.56 mg/kg |
